The structures appear in SMILES notation. A value given as a limit tells only on which side of the number the result lay.

The subject of one assay is sarcoidosis. Briefly: Treatment of a patient diagnosed with sarcoidosis. In kind it is in vivo. Here is the method:
A patient is diagnosed with sarcoidosis, and 1,3-propane disulfonic acid is administered to the patient.

Assay [1] has as its system SAA-induced production of IL-18 by THP-1 cells. Put plainly: SAA-stimulated inflammation in THP-1 cells: IL-18 production. The format is cell-based. As to conditions: THP-1 cells treated with PMA and SAA. An excerpt: (§1) FIG. 1 summarizes the protocol employed to evaluate the effect of 1,3-propanedisulfonic acid (or a pharmaceutically acceptable salt thereof) on SAA (serum amyloid A) stimulated inflammation in THP-1 cells.
(§2) THP-1 cells were subjected to PMA (phorbol 12-myristate 13-acetate (EMD Cat. #524400)), SAA (serum amyloid A (PeroTech Cat. #300-13)), and 1,3-propanedisulfonic acid (KIACTA C933 (NRA610-01-CF)). The SAA treated cells were used as a positive control, with the SAA increasing the inflammatory mediators, TNF, IL-18 and IL-10. 1,3-propanedisulfonic acid is added to the cell cultures and the effect on TNF, IL-18 and IL-10 levels is measured.

Assay [2] has as its system SAA-induced production of IL-TNF by THP-1 cells. Put plainly: SAA-stimulated inflammation in THP-1 cells: TNF production. The format is cell-based. As to conditions: THP-1 cells treated with PMA and SAA.
Description: as §1, §2

The test system of assay [3] is SAA-induced production of IL-10 by THP-1 cells. Briefly: SAA-stimulated inflammation in THP-1 cells: IL-10 production. The format is cell-based. As to conditions: THP-1 cells treated with PMA and SAA.
Description: as §1, §2

As for `O=S(=O)(O)CCCS(=O)(=O)O` [1,3-propanedisulfonic acid], the “effect on sarcoidosis symptoms” value with sarcoidosis was “reduction and/or alleviation of sarcoidosis symptoms”. In assay [1], the “concentration that inhibits SAA-induced production of IL-18” value was at least 5 mg/mL. Further, in assay [2], the “concentration that inhibits SAA-induced production of IL-TNF” value was at least 1.25 mg/mL. The “concentration that inhibits SAA-induced production of IL-10” value in assay [3] is at least 2.5 mg/mL.

Source of the values: patent publication US11413260B2, “Use of 1,3-propanedisulfonic acid or pharmaceutically acceptable salts thereof for the treatment of sarcoidosis” (Icahn School of Medicine at Mount Sinai, priority 2014, dated 2022).
